For data set [1], the system named is Barnyardgrass (Echinochloa crus-galli). In words: Postemergence herbicidal activity, Barnyardgrass. Format: in vivo. To be noted: post-emergence, 336 h, visual score after 2 weeks, 0 = no injury, 100 = complete kill, read-out: Post-emergent % control ECHCG; for pest or weed control at 250 ppm: rate 250 ppm. The method, then:
(§1) Seeds of the desired test plant species were planted in Grace-Sierra MetroMix® 306 planting mixture, which typically has a pH of 6.0 to 6.8 and an organic matter content of about 30 percent, in plastic pots with a surface area of 64 square centimeters. When required to ensure good germination and healthy plants, a fungicide treatment and/or other chemical or physical treatment was applied. The plants were grown for 7-21 days in a greenhouse with an approximate 15 hr photoperiod which was maintained at about 23-29° C. during the day and 22-28° C. during the night. Nutrients and water were added on a regular basis and supplemental lighting was provided with overhead metal halide 1000-Watt lamps as necessary. The plants were employed for testing when they reached the first or second true leaf stage. A weighed amount, determined by the highest rate to be tested, of each test compound was placed in a 20 mL glass vial and was dissolved in 4 mL of a 97:3 v/v (volume/volume) mixture of acetone and dimethyl sulfoxide (DMSO) to obtain concentrated stock solutions. […] The concentrated stock solutions obtained were diluted with an aqueous mixture containing acetone, water, isopropyl alcohol, DMSO, Atplus 411F crop oil concentrate, and Triton X-155 surfactant in a 48.5:39:10:1.5:1.0:0.02 v/v ratio to obtain spray solutions of known concentration. The solutions containing the highest concentration to be tested were prepared by diluting 2 mL aliquots of the stock solution with 13 mL of the mixture and lower concentrations were prepared by serial dilution of the stock solution. Approximately 1.5 mL aliquots of each solution of known concentration were sprayed evenly onto each of the test plant pots using a DeVilbiss atomizer driven by compressed air pressure of 2 to 4 psi (140 to 280 kilopascals) to obtain thorough coverage of each plant. Control plants were sprayed in the same manner with the aqueous mixture. In this test an application rate of 1 ppm results in the application of approximately 1 g/Ha. The treated plants and control plants were placed in a greenhouse as described above and watered by sub-irrigation to prevent wash-off of the test compounds. After 2 weeks the condition of the test plants as compared with that of the untreated plants was determined visually and scored on a scale of 0 to 100 percent where 0 corresponds to no injury and 100 corresponds to complete kill.

Data set [2] deals with Cocklebur (Xanthium strumarium). Briefly: Postemergence herbicidal activity, Cocklebur. Format: in vivo. Conditions: post-emergence, 336 h, visual score after 2 weeks, 0 = no injury, 100 = complete kill, read-out: Post-emergent % control XANST; for pest or weed control at 250 ppm: rate 250 ppm. The procedure:
as §1

In data set [3] the test system is Ivyleaf Morningglory (Ipomoea hederacea). Briefly: Preemergence herbicidal activity, Ivyleaf Morningglory. It counts as in vivo. To be noted: pre-emergence, 504 h, visual score after 3 weeks, 100 = complete kill or no germination, read-out: Pre-emergent % control IPOHE; for pest or weed control at 280 ppm: rate 280 ppm; for pest or weed control at 560 ppm: rate 560 ppm; for pest or weed control at 140 ppm: rate 140 ppm. The source says:
(§2) Seeds of the desired test plant species were planted in a soil matrix prepared by mixing a loam soil (43 percent silt, 19 percent clay, and 38 percent sand, with a pH of about 8.1 and an organic matter content of about 1.5 percent) and sand in a 70 to 30 ratio. The soil matrix was contained in plastic pots with a surface area of 113 square centimeters. When required to ensure good germination and healthy plants, a fungicide treatment and/or other chemical or physical treatment was applied. A weighed amount, determined by the highest rate to be tested, of each test compound was placed in a 20 mL glass vial and was dissolved in 4 mL of a 97:3 v/v (volume/volume) mixture of acetone and dimethyl sulfoxide to obtain concentrated stock solutions. […] The stock solutions obtained were diluted with a 99.9:0.1 mixture of water and Tween® […] surfactant to obtain application solutions of known concentration. The solutions containing the highest concentration to be tested were prepared by diluting 2 mL aliquots of the stock solution with 15 mL of the mixture and lower concentrations were prepared by serial dilution of the stock solution. A 2.5 mL aliquot of each solution of known concentration was sprayed evenly onto the soil surface (113 sq. cm) of each seeded pot using a Cornwall 5.0 mL glass syringe fitted with a TeeJet TN-3 hollow cone nozzle to obtain thorough coverage of the soil in each pot. Control pots were sprayed in the same manner with the aqueous mixture. The treated pots and control pots were placed in a greenhouse maintained with an approximate 15 hr photoperiod and temperatures of about 23-29° C. during the day and 22-28° C. during the night. Nutrients and water were added on a regular basis and supplemental lighting was provided with overhead metal halide 1000-Watt lamps as necessary. The water was added by top-irrigation. After 3 weeks the condition of the test plants that germinated and grew as compared with that of the untreated plants that germinated and grew was determined visually and scored on a scale of 0 to 100 percent where 0 corresponds to no injury and 100 corresponds to complete kill or no germination.

Data set [4] deals with Giant Foxtail (Setaria faberi). In words: Postemergence herbicidal activity, Giant Foxtail. To be noted: post-emergence, 336 h, visual score after 2 weeks, 0 = no injury, 100 = complete kill, read-out: Post-emergent % control SETFA; for pest or weed control at 250 ppm: rate 250 ppm. Format: in vivo. The method, then: as §1
The test system of data set [5] is Lambsquarter (Chenopodium album). In words: Postemergence herbicidal activity, Lambsquarter. Format: in vivo. To be noted: post-emergence, 336 h, visual score after 2 weeks, 0 = no injury, 100 = complete kill, read-out: Post-emergent % control CHEAL; for pest or weed control at 250 ppm: rate 250 ppm. The method, then:
as §1

Data set [6] shares this test system. Briefly: Preemergence herbicidal activity, Lambsquarter. Format: in vivo. To be noted: pre-emergence, 504 h, visual score after 3 weeks, 100 = complete kill or no germination, read-out: Pre-emergent % control CHEAL; for pest or weed control at 280 ppm: rate 280 ppm; for pest or weed control at 560 ppm: rate 560 ppm; for pest or weed control at 140 ppm: rate 140 ppm.
Text: as §2

The subject of data set [7] is Crabgrass(large) (Digitaria sanguinalis). Briefly: Preemergence herbicidal activity, Crabgrass(large). Format: in vivo. Conditions: pre-emergence, 504 h, visual score after 3 weeks, 100 = complete kill or no germination, read-out: Pre-emergent % control DIGSA; for pest or weed control at 280 ppm: rate 280 ppm; for pest or weed control at 560 ppm: rate 560 ppm; for pest or weed control at 140 ppm: rate 140 ppm.
Text: as §2

For data set [8], the system named is Giant Foxtail (Setaria faberi). In words: Preemergence herbicidal activity, Giant Foxtail. It counts as in vivo. To be noted: pre-emergence, 504 h, visual score after 3 weeks, 100 = complete kill or no germination, read-out: Pre-emergent % control SETFA; for pest or weed control at 280 ppm: rate 280 ppm; for pest or weed control at 560 ppm: rate 560 ppm; for pest or weed control at 140 ppm: rate 140 ppm.
Text: as §2

This passage reports pest or weed control and melting point results from US7432227B2, “6-alkyl or alkenyl-4-aminopicolinates and their use as herbicides” (Dow AgroSciences LLC, priority 2003, dated 2008).

A word on the melting point: it is the temperature, or range, at which the solid turns liquid.

`C=Cc1nc(C(=O)OC)c(Cl)c(N)c1F` [Compound 1, Methyl 4-amino-3-chloro-5-fluoro-6-vinylpyridine-2-carboxylate]: the melting point was 68 to 71 °C. Also, in data set [1], the pest or weed control at 250 ppm came to 60%. For the same compound, the pest or weed control at 250 ppm in data set [2] turned out to be 100%. Besides, in [3], the pest or weed control at 280 ppm came to 100%. Further, in data set [4], the pest or weed control at 250 ppm was 50%. Besides, the pest or weed control at 250 ppm in data set [5] was found to be 100%. In addition, in [6], the pest or weed control at 280 ppm was 100%. Further, the pest or weed control at 280 ppm in [7] came to 95%. In addition, the pest or weed control at 280 ppm in data set [8] was found to be 90%.
Turning to `Cc1cc(N)c(Cl)c(C(=O)O)n1` [Compound 8, 4-Amino-3-chloro-6-methylpyridine-2-carboxylic acid], the pest or weed control at 250 ppm in [1] amounted to 0%; in data set [2], 70%; in [4], 0%; in [5], 40%. Besides, the pest or weed control at 280 ppm in data set [3] is 85%; in data set [6], 100%; in data set [7], 20%; in data set [8], 10%.
For `C=CCc1cc(N)c(Cl)c(C(=O)O)n1` [Compound 11, 6-Allyl-4-amino-3-chloropyridine-2-carboxylic acid], the pest or weed control at 250 ppm was 0% in data set [1], 85% in [2], 0% in data set [4] and 70% in data set [5]. The pest or weed control at 560 ppm in data set [3] is 80%; in [6] it was 40%; in data set [7], 0%; in [8], 0%.
As to `Cc1nc(C(=O)O)c(Cl)c(N)c1F` [Compound 7, 4-Amino-3-chloro-6-methyl-5-fluoropyridine-2-carboxylic acid], the pest or weed control at 288 ppm in data set [1] (rate 288 ppm) is 80%; in data set [2] (rate 288 ppm) it was 100%; in data set [4] (rate 288 ppm), 85%; in [5] (rate 288 ppm), 98%. In addition, the pest or weed control at 295 ppm in [3] (rate 295 ppm) came out at 98%; in data set [6] (rate 295 ppm) it was 98%; in [7] (rate 295 ppm) it was 85%; in [8] (rate 295 ppm), 85%.
Consider `CCc1nc(C(=O)O)c(Cl)c(N)c1F` [Compound 5, 4-Amino-3-chloro-6-ethyl-5-fluoropyridine-2-carboxylic acid], for which the melting point was in the range of 144 to 145 °C. In data set [1], the pest or weed control at 250 ppm was 85%. Moreover, the pest or weed control at 250 ppm in data set [2] turned out to be 100%. The pest or weed control at 140 ppm in data set [3] amounted to 100%. For the same compound, the pest or weed control at 250 ppm in data set [4] came to 70%. The pest or weed control at 250 ppm in data set [5] was found to be 100%. In data set [6], the pest or weed control at 140 ppm came to 100%. For the same compound, in data set [7], the pest or weed control at 140 ppm stood at 90%. In addition, in data set [8], the pest or weed control at 140 ppm came to 90%.
For `CSCc1cc(N)c(Cl)c(C(=O)O)n1` [Compound 10, 4-Amino-3-chloro-6-[(methylthio)methyl]pyridine-2-carboxylic acid], the pest or weed control at 250 ppm in data set [1] came out at 0%; in [2], 85%; in data set [4], 20%; in [5], 70%. Further, the pest or weed control at 560 ppm in data set [3], in data set [6], in [7] and in data set [8] was 0% each time.
For `COC(=O)c1nc(C)c(F)c(N)c1Cl` [Compound 12, Methyl 4-amino-3-chloro-5-fluoro-6-methylpyridine-2-carboxylate], the melting point lay in the range of 113 to 114 °C. Also, the pest or weed control at 250 ppm in [1] stood at 80%. In addition, in data set [2], the pest or weed control at 250 ppm turned out to be 100%. Further, in [3], the pest or weed control at 140 ppm came to 100%. Besides, the pest or weed control at 250 ppm in data set [4] is 95%. For the same compound, the pest or weed control at 250 ppm in data set [5] amounted to 100%. Moreover, the pest or weed control at 140 ppm in data set [6] came to 100%. In addition, the pest or weed control at 140 ppm in data set [7] was found to be 100%. In addition, the pest or weed control at 140 ppm in [8] was 98%.
Take `C=Cc1cc(N)c(Cl)c(C(=O)OC)n1` [Compound 2, Methyl 4-amino-3-chloro-6-vinylpyridine-2-carboxylate]: the pest or weed control at 250 ppm turned out to be 0% in data set [1], 80% in data set [2], 10% in [4] and 85% in [5]. Further, the pest or weed control at 560 ppm in [3] stood at 60%; in [6], 100%; in [7], 0%; in data set [8], 0%.
